Legend:
Settings in all cases: scale 0 to 100
[1] = system: blackgrass; assay: Test D preemergence test; type: in vivo, Alopecurus myosuroides
Source text: (§1) Seeds of plant species selected from annual bluegrass (Poa annua), blackgrass (Alopecurus myosuroides), downy bromegrass (Bromus tectorum), field violet (Viola arvensis), green foxtail (Setaria viridis), Italian ryegrass (Lolium multiflorum), littleseed canarygrass (Phalaris minor), spring wheat (Triticum aestivum), wild oat (Avena fatua), […]), winter barley (Hordeum vulgare), and winter wheat (Triticum aestivum) were planted and treated preemergence with test chemicals formulated in a non-phytotoxic solvent mixture which included a surfactant. […] A dash (-) response means no test result.

[2] = system: cotton; assay: Test G preemergence test; type: in vivo, Gossypium hirsutum
[3] = system: field sandbur; assay: Test G preemergence test; type: in vivo, Cenchrus incertus
[4] = system: eastern black nightshade; assay: Test G preemergence test; type: in vivo, Solanum ptycanthum
[5] = system: lambsquarters; assay: Test G preemergence test; type: in vivo, Chenopodium album
[6] = system: fall panicum; assay: Test G preemergence test; type: in vivo, Panicum dichotomiflorum
[7] = system: tall waterhemp; assay: Test G preemergence test; type: in vivo, Amaranthus tuberculatos
[8] = system: woolly cupgrass; assay: Test G preemergence test; type: in vivo, Eriochloa villosa
[9] = system: field violet; assay: Test D preemergence test; type: in vivo, Viola arvensis
Source text: as §1

[10] = system: windgrass; assay: Test D preemergence test; type: in vivo, Apera spica-venti
Source text: as §1

[11] = system: sorghum; assay: Test G preemergence test; type: in vivo, Sorghum vulgare
[12] = system: annual bluegrass; assay: Test D preemergence test; type: in vivo, Poa annua
Source text: as §1

[13] = system: corn; assay: Test G preemergence test; type: in vivo, Zea mays
[14] = system: soybean; assay: Test G preemergence test; type: in vivo, Glycine max
[15] = system: goosegrass; assay: Test G preemergence test; type: in vivo, Eleusine indica
[16] = system: spring wheat; assay: Test D preemergence test; type: in vivo, Triticum aestivum
Source text: as §1

[17] = system: yellow foxtail; assay: Test G preemergence test; type: in vivo, Pennisetum glaucum
[18] = system: broadleaf signalgrass; assay: Test G preemergence test; type: in vivo, Brachiaria platyphylla
[19] = system: littleseed canarygrass; assay: Test D preemergence test; type: in vivo, Phalaris minor
Source text: as §1

[20] = system: millet foxtail; assay: Test G preemergence test; type: in vivo, Setaria italica
[21] = system: Italian ryegrass; assay: Test D preemergence test; type: in vivo, Lolium multiflorum
Source text: as §1

[22] = system: giant foxtail; assay: Test G preemergence test; type: in vivo, Setaria faberii

Cn1nc(C(F)(F)F)c(C(Cl)S(=O)(=O)c2cccc[n+]2[O-])c1Cl (stereo not shown) [Compound 12]
95: Plant response rating, Sandbur ([3]; 125 g ai/ha) | Plant response rating, Waterhemp ([7]; 125 g ai/ha) | Plant response rating, Foxtail, Yellow ([17]; 31 g ai/ha)
100: Plant response rating, Blackgrass ([1]; 125 g ai/ha) | Plant response rating, Blackgrass ([1]; 250 g ai/ha) | Plant response rating, Sandbur ([3]; 250 g ai/ha) | Plant response rating, Fall Panicum ([6]; 62 g ai/ha) | Plant response rating, Fall Panicum ([6]; 125 g ai/ha) | Plant response rating, Fall Panicum ([6]; 250 g ai/ha) | Plant response rating, Waterhemp ([7]; 250 g ai/ha) | Plant response rating, Windgrass ([10]; 31 g ai/ha) | Plant response rating, Windgrass ([10]; 62 g ai/ha) | Plant response rating, Windgrass ([10]; 125 g ai/ha) | Plant response rating, Windgrass ([10]; 250 g ai/ha) | Plant response rating, Sorghum ([11]; 250 g ai/ha) | Plant response rating, Bluegrass ([12]; 62 g ai/ha) | Plant response rating, Bluegrass ([12]; 125 g ai/ha) | Plant response rating, Bluegrass ([12]; 250 g ai/ha) | Plant response rating, Goosegrass ([15]; 31 g ai/ha) | Plant response rating, Goosegrass ([15]; 62 g ai/ha) | Plant response rating, Goosegrass ([15]; 125 g ai/ha) | Plant response rating, Goosegrass ([15]; 250 g ai/ha) | Plant response rating, Foxtail, Yellow ([17]; 62 g ai/ha) | Plant response rating, Foxtail, Yellow ([17]; 125 g ai/ha) | Plant response rating, Foxtail, Yellow ([17]; 250 g ai/ha) | Plant response rating, Canarygrass ([19]; 250 g ai/ha) | Plant response rating, Foxtail, Millet ([20]; 125 g ai/ha) | Plant response rating, Foxtail, Millet ([20]; 250 g ai/ha) | Plant response rating, Ryegrass, Italian ([21]; 250 g ai/ha) | Plant response rating, Foxtail, Giant ([22]; 125 g ai/ha) | Plant response rating, Foxtail, Giant ([22]; 250 g ai/ha)
65: Plant response rating, Cupgrass, Woolly ([8]; 125 g ai/ha)
60: Plant response rating, Sorghum ([11]; 125 g ai/ha) | Plant response rating, Bluegrass ([12]; 31 g ai/ha)
0: Plant response rating, Blackgrass ([1]; 31 g ai/ha) | Plant response rating, Blackgrass ([1]; 62 g ai/ha) | Plant response rating, Cotton ([2]; 31 g ai/ha) | Plant response rating, Cotton ([2]; 62 g ai/ha) | Plant response rating, Cotton ([2]; 125 g ai/ha) | Plant response rating, Cotton ([2]; 250 g ai/ha) | Plant response rating, Nightshade ([4]; 31 g ai/ha) | Plant response rating, Nightshade ([4]; 62 g ai/ha) | Plant response rating, Nightshade ([4]; 125 g ai/ha) | Plant response rating, Lambsquarters ([5]; 31 g ai/ha) | Plant response rating, Lambsquarters ([5]; 62 g ai/ha) | Plant response rating, Lambsquarters ([5]; 125 g ai/ha) | Plant response rating, Waterhemp ([7]; 31 g ai/ha) | Plant response rating, Cupgrass, Woolly ([8]; 31 g ai/ha) | Plant response rating, Cupgrass, Woolly ([8]; 62 g ai/ha) | Plant response rating, Field Violet ([9]; 31 g ai/ha) | Plant response rating, Field Violet ([9]; 62 g ai/ha) | Plant response rating, Field Violet ([9]; 125 g ai/ha) | Plant response rating, Sorghum ([11]; 31 g ai/ha) | Plant response rating, Sorghum ([11]; 62 g ai/ha) | Plant response rating, Corn ([13]; 31 g ai/ha) | Plant response rating, Corn ([13]; 62 g ai/ha) | Plant response rating, Corn ([13]; 125 g ai/ha) | Plant response rating, Corn ([13]; 250 g ai/ha) | Plant response rating, Soybean ([14]; 31 g ai/ha) | Plant response rating, Soybean ([14]; 62 g ai/ha) | Plant response rating, Soybean ([14]; 125 g ai/ha) | Plant response rating, Soybean ([14]; 250 g ai/ha) | Plant response rating, Wheat, Spring ([16]; 31 g ai/ha) | Plant response rating, Wheat, Spring ([16]; 62 g ai/ha) | Plant response rating, Wheat, Spring ([16]; 125 g ai/ha) | Plant response rating, Wheat, Spring ([16]; 250 g ai/ha) | Plant response rating, Signalgrass ([18]; 31 g ai/ha) | Plant response rating, Signalgrass ([18]; 62 g ai/ha) | Plant response rating, Canarygrass ([19]; 31 g ai/ha) | Plant response rating, Canarygrass ([19]; 62 g ai/ha) | Plant response rating, Ryegrass, Italian ([21]; 31 g ai/ha) | Plant response rating, Ryegrass, Italian ([21]; 62 g ai/ha)
40: Plant response rating, Waterhemp ([7]; 62 g ai/ha) | Plant response rating, Field Violet ([9]; 250 g ai/ha)
45: Plant response rating, Foxtail, Millet ([20]; 31 g ai/ha) | Plant response rating, Foxtail, Giant ([22]; 31 g ai/ha)
85: Plant response rating, Sandbur ([3]; 31 g ai/ha) | Plant response rating, Sandbur ([3]; 62 g ai/ha)
15: Plant response rating, Lambsquarters ([5]; 250 g ai/ha)
70: Plant response rating, Nightshade ([4]; 250 g ai/ha) | Plant response rating, Cupgrass, Woolly ([8]; 250 g ai/ha) | Plant response rating, Ryegrass, Italian ([21]; 125 g ai/ha)
75: Plant response rating, Signalgrass ([18]; 125 g ai/ha) | Plant response rating, Signalgrass ([18]; 250 g ai/ha) | Plant response rating, Canarygrass ([19]; 125 g ai/ha) | Plant response rating, Foxtail, Millet ([20]; 62 g ai/ha) | Plant response rating, Foxtail, Giant ([22]; 62 g ai/ha)
90: Plant response rating, Fall Panicum ([6]; 31 g ai/ha)
